Assay results: ChEMBL document CHEMBL5518186, “Discovery of the cereblon-recruiting tubulin PROTACs effective in overcoming Taxol resistance in vitro and in vivo” (Eur J Med Chem, 2024)

Key:
Format in all cases: functional, cell-based
MCF7 = test: Antiproliferative activity against human MCF7 cells incubated for 72 hrs; conditions: MCF7, 72 h
A549 = test: Antiproliferative activity against human A549 cells incubated for 72 hrs; conditions: A549, 72 h
HepG2 = test: Antiproliferative activity against human HepG2 cells incubated for 72 hrs; conditions: HepG2, 72 h
MGC-803 = test: Antiproliferative activity against human MGC-803 cells incubated for 72 hrs; conditions: MGC-803, 72 h
HeLa = test: Antiproliferative activity against human HeLa cells incubated for 72 hrs
U-937 = test: Antiproliferative activity against human U-937 cells incubated for 72 hrs; conditions: U-937, 72 h

Row | Compound | IC50 (MCF7) [µM] | IC50 (A549) [µM] | IC50 (HepG2) [µM] | IC50 (MGC-803) [µM] | IC50 (HeLa) [µM] | IC50 (U-937) [µM]
1 | COc1ccc(/C=C\c2cc(OC)c(OC)c(OC)c2)cc1OC(=O)CCCOCCc1cn(CCCCC(=O)Nc2cccc3c2C(=O)N(C2CCC(=O)NC2=O)C3=O)nn1 (centres undefined) | > 5 | > 5 | > 5 | > 5 | > 5 | > 5
2 | COc1ccc(/C=C\c2cc(OC)c(OC)c(OC)c2)cc1OC(=O)CN1C(=O)CCC(N2Cc3c(N)cccc3C2=O)C1=O (centres undefined) | > 5 | > 5 | > 5 | > 5 | > 5 | > 5
3 | COc1ccc(/C=C\c2cc(OC)c(OC)c(OC)c2)cc1OC(=O)CCCCCN1C(=O)CCC(N2Cc3c(N)cccc3C2=O)C1=O (centres undefined) | > 5 | > 5 | > 5 | > 5 | > 5 | > 5
4 | COc1ccc(/C=C\c2cc(OC)c(OC)c(OC)c2)cc1OCc1cn(CCCC(=O)Nc2cccc3c2C(=O)N(C2CCC(=O)NC2=O)C3=O)nn1 (centres undefined) | > 5 | 2.76 | 1.6 | 1.24 | > 5 | > 5
5 | COc1ccc(/C=C\c2cc(OC)c(OC)c(OC)c2)cc1OCc1cn(CCCCCC(=O)Nc2cccc3c2C(=O)N(C2CCC(=O)NC2=O)C3=O)nn1 (centres undefined) | > 5 | > 5 | > 5 | > 5 | > 5 | > 5
6 | COc1ccc(/C=C\c2cc(OC)c(OC)c(OC)c2)cc1OC(=O)CCCOCCc1cn(CCCC(=O)Nc2cccc3c2C(=O)N(C2CCC(=O)NC2=O)C3=O)nn1 (centres undefined) | 4.23 | 3.75 | 3.12 | 2.35 | > 5 | > 5
7 | COc1ccc(/C=C\c2cc(OC)c(OC)c(OC)c2)cc1OC(=O)CCCN1C(=O)CCC(N2Cc3c(N)cccc3C2=O)C1=O (centres undefined) | > 5 | > 5 | > 5 | > 5 | > 5 | > 5
8 | COc1ccc(/C=C\c2cc(OC)c(OC)c(OC)c2)cc1OCc1cn(CCCCC(=O)Nc2cccc3c2C(=O)N(C2CCC(=O)NC2=O)C3=O)nn1 (centres undefined) | 4.06 | > 5 | > 5 | > 5 | > 5 | 1.62
9 | COc1ccc(/C=C\c2cc(OC)c(OC)c(OC)c2)cc1OC(=O)CCNc1cccc2c1C(=O)N(C1CCC(=O)NC1=O)C2=O (centres undefined) | > 5 | > 5 | > 5 | > 5 | > 5 | > 5

Stronger by IC50 (MCF7), values ahead:

Row | IC50 (MCF7) [µM] | IC50 (A549) [µM] | IC50 (HepG2) [µM] | IC50 (MGC-803) [µM] | IC50 (HeLa) [µM] | IC50 (U-937) [µM] | Compound
10 | 2.38 | 1.83 | 2.3 | 1.53 | 1.9 | > 5 | COc1ccc(/C=C\c2cc(OC)c(OC)c(OC)c2)cc1OC(=O)CCCCCOCCc1cn(CCCC(=O)Nc2cccc3c2C(=O)N(C2CCC(=O)NC2=O)C3=O)nn1 (centres undefined)
11 | 2.3 | 1.76 | 1.99 | 1.79 | > 5 | > 5 | COc1ccc(/C=C\c2cc(OC)c(OC)c(OC)c2)cc1OC(=O)CCCCCOCCc1cn(CCCCCC(=O)Nc2cccc3c2C(=O)N(C2CCC(=O)NC2=O)C3=O)nn1 (centres undefined)
12 | 2.35 | 2.44 | 1.92 | 1.4 | > 5 | > 5 | COc1ccc(/C=C\c2cc(OC)c(OC)c(OC)c2)cc1OC(=O)CCCCCOCCc1cn(CCCCC(=O)Nc2cccc3c2C(=O)N(C2CCC(=O)NC2=O)C3=O)nn1 (centres undefined)
13 | 0.263 | 0.374 | 0.213 | 0.175 | 1.51 | 0.8 | COc1ccc(/C=C\c2cc(OC)c(OC)c(OC)c2)cc1OC(=O)CCCCOCCc1cn(CCCCC(=O)Nc2cccc3c2C(=O)N(C2CCC(=O)NC2=O)C3=O)nn1 (centres undefined)
14 | 2.98 | 3.9 | 2.88 | 3.1 | > 5 | > 5 | COc1ccc(/C=C\c2cc(OC)c(OC)c(OC)c2)cc1OC(=O)CCCOCCc1cn(CCCCCC(=O)Nc2cccc3c2C(=O)N(C2CCC(=O)NC2=O)C3=O)nn1 (centres undefined)
